Experimental data reported in patent US11110084B2, “Opioid formulations” (Camurus AB, priority 2012, dated 2021).

Settings: disodium fluorescein 5 mg/g, 0.1 g in 2 ml PBS

## O=C([O-])c1ccccc1-c1c2ccc(=O)cc-2oc2cc([O-])ccc12.[Na+].[Na+] [Fluo, disodium fluorescein]
  % release (37° C.) 72 h: about 0.4%
